# Results as given in EPA's ToxRefDB 2.
# Columns and labels:
# [1] = system: rat; details: Subchronic oral toxicity in rodents, fischer, Gavage/Intubation, dose end: 13 week, group: systemic, systemic / pathology gross / spleen / enlarged + systemic / pathology microscopic / kidney / hemosiderosis + systemic / pathology …
# [2] = system: rat; details: Carcinogenicity, fischer, Oral, Gavage/Intubation, dose end: 103 week, group: systemic
# [3] = system: mouse; details: Sub-acute repeat dose toxicity, b6c3f1, Oral, Gavage/Intubation, dose end: 15 day, group: systemic
# [4] = system: mouse; details: Carcinogenicity, b6c3f1, Oral, Gavage/Intubation, dose end: 103 week, group: systemic
# [5] = system: mouse; details: Subchronic oral toxicity in rodents, b6c3f1, Gavage/Intubation, dose end: 13 week, group: systemic
# [6] = system: rat; details: Sub-acute repeat dose toxicity, fischer, Oral, Gavage/Intubation, dose end: 14 day, group: systemic
# [7] = system: rat; details: Prenatal developmental toxicity study, other, Oral, Gavage/Intubation, dose end: 15 GD
# [8] = system: rat; details: Combined chronic toxicity/carcinogenicity, wistar, Oral, Feed, dose end: 104 week, group: systemic
# [9] = system: rat; details: Subchronic oral toxicity in rodents, wistar, Feed, dose end: 3 month, group: systemic
# [10] = system: rat; details: Combined chronic toxicity/carcinogenicity, wistar, Oral, Feed, dose end: 104 week, group: systemic; remark: listed apart in the source
# [11] = system: rat; details: Multigenerational reproductive toxicity study, sprague dawley, Oral, Feed, dose end: 2 generation
# [12] = system: dog; details: Chronic toxicity, beagle, Oral, Feed, dose end: 2 year, group: systemic
# [13] = systemic / pathology microscopic / liver / inflammation + systemic / pathology microscopic / spleen / hematopoietic cell proliferation + …
# [14] = systemic / pathology microscopic / spleen / hematopoietic cell proliferation + systemic / pathology microscopic / spleen / hemosiderosis
# [15] = systemic / pathology gross / spleen / enlarged
# [16] = systemic / pathology gross / spleen / enlarged + systemic / pathology microscopic / spleen / congestion + systemic / pathology microscopic…
# [17] = systemic / pathology microscopic / stomach / hyperplasia
# [18] = systemic / pathology microscopic / stomach / squamous cell papilloma + systemic / pathology microscopic / stomach / hyperplasia
# [19] = systemic / in life observation / body weight / body weight
# [20] = systemic / pathology gross / spleen / enlarged + systemic / pathology microscopic / spleen / hematopoietic cell proliferation + systemic / …
# [21] = group: developmental, developmental / developmental malformation / bone / full supernumerary + developmental / developmental malformation / general / [other]
# [22] = group: maternal, systemic / in life observation / body weight / body weight gain + systemic / in life observation / food consumption / food consumption
# [23] = group: maternal, systemic / in life observation / body weight / body weight gain + systemic / in life observation / food consumption / food consumption + …
# [24] = systemic / clinical chemistry / alpha-2 globulin / alpha-2 globulin
# [25] = systemic / clinical chemistry / alpha-2 globulin / alpha-2 globulin + systemic / hematology / platelet / platelet + systemic / organ weight…
# [26] = systemic / clinical chemistry / [other] / [other] + systemic / in life observation / body weight / body weight gain
# [27] = systemic / organ weight / kidney / absolute + systemic / organ weight / kidney / relative to body weight + systemic / organ weight / kidney…
# [28] = systemic / hematology / platelet / platelet + systemic / organ weight / liver / relative to body weight + systemic / pathology microscopic…
# [29] = systemic / pathology microscopic / adrenal gland / pheochromocytoma benign + systemic / pathology microscopic / adrenal gland / …
# [30] = group: offspring, developmental / offspring survival late / viability index / viability index + systemic / in life observation / body weight / offspring (pup…
# [31] = group: parental, systemic / clinical chemistry / alpha-2 globulin / alpha-2 globulin + systemic / organ weight / kidney / absolute + systemic / organ weight…
# [32] = systemic / clinical chemistry / bilirubin / total bilirubin + systemic / hematology / anisocytosis / anisocytosis + systemic / hematology / …
# [33] = systemic / clinical chemistry / glucose / glucose
smiles,measurement,setting,value
"CN(C)c1ccccc1 [N,N-Dimethylaniline]",LEL,[1],31 mg/kg/day
same,LOAEL,[1],31 mg/kg/day
same,NEL,[1],< 31 mg/kg/day
same,NOAEL,[1],< 31 mg/kg/day
same,LOAEL,[2]; [13],30 mg/kg/day
same,NOAEL,[2]; [13],3 mg/kg/day
same,LEL,[2]; [14],3 mg/kg/day
same,NEL,[2]; [14],< 3 mg/kg/day
same,LEL,[3]; [15],188 mg/kg/day
same,LOAEL,[3]; [16],375 mg/kg/day
same,NEL,[3]; [16],94 mg/kg/day
same,NOAEL,[3]; [16],188 mg/kg/day
same,LEL,[4]; [17],15 mg/kg/day
same,NEL,[4]; [17],< 15 mg/kg/day
same,LOAEL,[4]; [18],> 30 mg/kg/day
same,NOAEL,[4]; [18],≥ 30 mg/kg/day
same,LEL,[5]; [19],31 mg/kg/day
same,NEL,[5]; [19],< 31 mg/kg/day
same,LOAEL,[5]; [20],62 mg/kg/day
same,NOAEL,[5]; [20],31 mg/kg/day
same,LEL,[6]; [15],94 mg/kg/day
same,NEL,[6]; [15],< 94 mg/kg/day
same,LOAEL,[6]; [20],375 mg/kg/day
same,NOAEL,[6]; [20],188 mg/kg/day
ClC1C(Cl)C(Cl)C(Cl)C(Cl)C1Cl (stereo unspecified) [Lindane],LEL,[7]; [21],20 mg/kg/day
same,LOAEL,[7]; [21],20 mg/kg/day
same,NEL,[7]; [21],10 mg/kg/day
same,NOAEL,[7]; [21],10 mg/kg/day
same,LEL,[7]; [22],10 mg/kg/day
same,LOAEL,[7]; [22],10 mg/kg/day
same,NEL,[7]; [23],5 mg/kg/day
same,NOAEL,[7]; [23],5 mg/kg/day
same,LEL,[8]; [24],0.05 mg/kg/day
same,NEL,[8]; [24],< 0.05 mg/kg/day
same,LOAEL,[8]; [25],4.81 mg/kg/day
same,NOAEL,[8]; [25],0.47 mg/kg/day
same,LEL,[9]; [26],0.01 mg/kg/day
same,NEL,[9]; [26],< 0.01 mg/kg/day
same,LOAEL,[9]; [27],1 mg/kg/day
same,NOAEL,[9]; [27],0.2 mg/kg/day
same,LOAEL,[10]; [28],4.81 mg/kg/day
same,NOAEL,[10]; [28],0.47 mg/kg/day
same,LEL,[10]; [29],0.05 mg/kg/day
same,NEL,[10]; [29],< 0.05 mg/kg/day
same,LEL,[11]; [30],13.1 mg/kg/day
same,LOAEL,[11]; [30],13.1 mg/kg/day
same,NEL,[11]; [30],1.71 mg/kg/day
same,NOAEL,[11]; [30],1.71 mg/kg/day
same,LOAEL,"[11]; group: parental, systemic / clinical chemistry / alpha-2 globulin / alpha-2 globulin",1.71 mg/kg/day
same,LEL,[11]; [31],1.71 mg/kg/day
same,NEL,[11]; [31],0.0865 mg/kg/day
same,NOAEL,[11]; [31],0.0865 mg/kg/day
"CC(O)CO (stereo unspecified) [1,2-Propylene glycol]",LOAEL,[12]; [32],> 5000 mg/kg/day
same,NOAEL,[12]; [32],≥ 5000 mg/kg/day
same,LEL,[12]; [33],2000 mg/kg/day
same,NEL,[12]; [33],< 2000 mg/kg/day
